In patent US20250215029A1 (Recludix Pharma, Inc., priority 2022, published 2025) one finds IC50 data, which are given here for eleven compounds.

Read-outs that look alike come from different tables or passages of the source. Bounds are passed on as bounds.

One experiment addresses T1, pY705-STAT3 in PBMC (Homo sapiens, UniProt P40763).
T1 construct: Cryopreserved Peripheral Blood Mononuclear Cells (PBMC) are from AllCells; host or cells: cryopreserved PBMC
As to the kind of experiment: MSD-pSTAT-PBMC Assay (pSTAT3, IL-6 stimulated). It is filed as cell-based. Conditions: PBMC, compound 3 hrs, then 10 ng/mL IL-6 for 10 min. In short, it runs like this: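 Cells are preincubated with compound for 3 hrs, then stimulated for 10 min, IL-4 at 1 ng/mL driving STAT6 phosphorylation and IL-6 at 10 ng/mL driving STAT3. Phospho-STAT in lysates is quantified by MSD immunoassay, and IC50 is fitted after subtracting unstimulated wells.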

Another experiment concerns the target T2, pY641-STAT6 in PBMC (Homo sapiens, UniProt P42226).
T2 construct: Cryopreserved Peripheral Blood Mononuclear Cells (PBMC) are from AllCells; host or cells: cryopreserved PBMC
T2 sequence (P42226 1-847): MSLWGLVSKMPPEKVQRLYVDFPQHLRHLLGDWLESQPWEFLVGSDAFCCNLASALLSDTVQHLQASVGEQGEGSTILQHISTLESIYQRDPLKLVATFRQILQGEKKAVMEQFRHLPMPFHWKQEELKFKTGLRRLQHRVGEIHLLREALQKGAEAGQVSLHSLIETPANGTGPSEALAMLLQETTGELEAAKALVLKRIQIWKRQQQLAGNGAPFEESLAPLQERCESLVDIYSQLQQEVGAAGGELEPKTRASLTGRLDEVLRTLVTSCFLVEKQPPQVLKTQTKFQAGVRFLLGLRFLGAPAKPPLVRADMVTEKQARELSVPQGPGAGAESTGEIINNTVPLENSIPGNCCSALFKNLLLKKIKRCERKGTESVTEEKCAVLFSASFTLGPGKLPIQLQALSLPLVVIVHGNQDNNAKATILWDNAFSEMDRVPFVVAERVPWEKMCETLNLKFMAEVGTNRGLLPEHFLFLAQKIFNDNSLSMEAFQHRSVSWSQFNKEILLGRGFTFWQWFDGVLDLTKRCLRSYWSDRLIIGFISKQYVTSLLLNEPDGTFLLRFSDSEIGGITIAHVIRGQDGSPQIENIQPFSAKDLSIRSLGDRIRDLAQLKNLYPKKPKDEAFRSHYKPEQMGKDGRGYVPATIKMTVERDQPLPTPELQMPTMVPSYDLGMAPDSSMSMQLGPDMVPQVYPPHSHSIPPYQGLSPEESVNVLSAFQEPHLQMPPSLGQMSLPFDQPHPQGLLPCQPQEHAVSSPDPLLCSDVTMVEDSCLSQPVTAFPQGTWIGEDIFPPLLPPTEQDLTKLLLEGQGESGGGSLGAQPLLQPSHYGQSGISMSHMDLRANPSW
Kind of experiment: MSD-pSTAT-PBMC Assay (pSTAT6, IL-4 stimulated). In kind it is cell-based. Conditions: compound 3 hrs, then 1 ng/mL IL-4 for 10 min. Put shortly:
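Thawed human PBMC rested overnight in IMDM/10% FBS, then got compound for 3 hrs before a 10 min cytokine pulse: 1 ng/mL IL-4 for pSTAT6, 10 ng/mL IL-6 for pSTAT3. Lysates went to MSD sandwich capture on total STAT6 or STAT3 with phospho-specific detection. IC50 came from background-subtracted, DMSO-normalized signal.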

Setting [1] is: PBMC, Table 1114, read-out: pSTAT6.

T1 sequence (P40763 whole entry): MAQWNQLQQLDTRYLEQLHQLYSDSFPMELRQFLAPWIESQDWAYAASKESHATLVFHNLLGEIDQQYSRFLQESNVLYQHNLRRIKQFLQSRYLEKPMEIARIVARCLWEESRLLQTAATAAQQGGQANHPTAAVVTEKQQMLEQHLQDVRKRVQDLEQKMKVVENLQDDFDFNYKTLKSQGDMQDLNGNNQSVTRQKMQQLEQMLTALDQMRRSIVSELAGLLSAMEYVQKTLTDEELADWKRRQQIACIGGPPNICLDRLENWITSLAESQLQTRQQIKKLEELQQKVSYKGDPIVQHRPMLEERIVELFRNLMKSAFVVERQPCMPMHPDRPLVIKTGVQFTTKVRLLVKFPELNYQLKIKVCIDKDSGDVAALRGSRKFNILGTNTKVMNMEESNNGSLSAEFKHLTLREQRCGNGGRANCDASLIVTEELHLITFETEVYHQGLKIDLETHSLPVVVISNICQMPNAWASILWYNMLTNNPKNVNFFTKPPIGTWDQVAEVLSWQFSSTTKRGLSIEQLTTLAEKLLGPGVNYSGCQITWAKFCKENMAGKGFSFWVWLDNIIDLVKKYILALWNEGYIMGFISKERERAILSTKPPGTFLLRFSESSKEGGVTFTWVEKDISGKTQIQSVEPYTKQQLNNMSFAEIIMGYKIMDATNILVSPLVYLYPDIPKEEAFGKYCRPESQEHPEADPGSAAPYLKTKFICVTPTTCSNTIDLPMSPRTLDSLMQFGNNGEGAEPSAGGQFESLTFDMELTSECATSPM

Consider `CC(C)(C)C(=O)SCCOP(=O)(Oc1ccc(C#N)cc1)C(F)(F)c1ccc2sc(C(=O)N[C@H]3CCCC[C@H]4CC[C@@H](C(=O)N5C[C@@H](C#N)[C@H](c6ccccc6)C5)N4C3=O)cc2c1` (single isomer, unassigned) [Compound 134, S-(2-((((2-(((3S,6S,10aS)-3-((3S,4R or 3R,4S)-3-cyano-4-phenylpyrrolidine-1-carbonyl)-5-oxodecahydro-pyrrolo[1,2-a]azocin-6-yl)carbamoyl)benzo[b]thiophen-5-yl)difluoromethyl)(4-cyanophenoxy)phosphoryl)oxy)ethyl)-2,2-dimethylpropane-thioate], for which the IC50 on pY705-STAT3 in PBMC (Table 1114, read-out: pSTAT3) was more than 3000 nM; on pY641-STAT6 in PBMC (pSTAT6, PBMC, Table 1114), 100 to 1000 nM.
In the case of `CCCOC(=O)[C@H](C)N[P@](=O)(Oc1ccccc1)[C@@H](F)c1ccc2sc(C(=O)N[C@H]3CCC[C@H]4CC[C@@H](C(=O)N5CC(c6cnccc6N(C)C)C5)N4C3=O)cc2c1` (single isomer, unassigned) [Compound 941], the IC50 at pY705-STAT3 in PBMC (Table 115, read-out: STAT3) is less than 100 nM; at pY641-STAT6 in PBMC (STAT6, PBMC, Table 115), 1000 to 3000 nM.
For `CCCOC(=O)[C@H](C)NP(=O)(Cc1ccc2sc(C(=O)N[C@H]3C[C@@H](C)C[C@H]4CC[C@@H](C(=O)N5CC(c6cnccc6C)C5)N4C3=O)cc2c1)Oc1ccccc1` (stereo partly drawn) [Compound 284, propyl (((2-(((3S,6S,8R,9aR)-8-methyl-3-(3-(4-methylpyridin-3-yl)azetidine-1-carbonyl)-5-oxooctahydro-1H-pyrrolo[1,2-a]azepin-6-yl)carbamoyl)benzo [b]thiophen-5-yl)methyl)(phenoxy)phosphoryl)-L-alaninate], in that order: less than 100 nM and more than 3000 nM.
Take `CC(C)(C)C(=O)OCOP(=O)(OCOC(=O)C(C)(C)C)[C@@H](F)c1ccc2sc(C(=O)N[C@H]3CCCC[C@H]4CC[C@@H](C(=O)N5C[C@@H](C#N)[C@H](c6ccccc6)C5)N4C3=O)cc2c1` (single isomer, unassigned) [Compound 184, ((((S)- or (R)-(2-(((3S,6S, 10aS)-3-((3S,4R or 3R,4S)-3-cyano-4-phenyl-pyrrolidine-1-carbonyl)-5-oxodeca-hydropyrrolo [1,2-a]azocin-6-yl)carbamoyl)benzo[b]thiophen-5-yl)fluoromethyl)phosphoryl)bis(oxy)) bis(methylene) bis(2,2-dimethyl-propanoate)]: the IC50 at pY705-STAT3 in PBMC (Table 1114, read-out: pSTAT3) is 100 to 1000 nM; at pY641-STAT6 in PBMC (setting [1]), less than 100 nM.
For the compound `CC(C)(O)CC(=O)SCCOP(=O)(OCCSC(=O)CC(C)(C)O)C(F)(F)c1ccc2sc(C(=O)N[C@H]3CCCC[C@H]4CC[C@@H](C(=O)N5C[C@@H](C#N)[C@H](c6ccccc6)C5)N4C3=O)cc2c1` (single isomer, unassigned) [Compound 202, S,S′-(((((2-(((3S,6S,10a S)-3-((3S,4R or 3R,4S)-3-cyano-4-phenylpyrrolidine-1-carbonyl)-5-oxodecahydro-pyrrolo [1,2-a]azocin-6-yl)carbamoyl)benzo [b]thiophen-5-yl)difluoromethyl)phosphoryl)bis(oxy))bis(ethane-2,1-diyl)) bis(3-hydroxy-3-methylbutane thioate)], the IC50 was more than 3000 nM on pY705-STAT3 in PBMC (Table 1114, read-out: pSTAT3) and 1000 to 3000 nM on pY641-STAT6 in PBMC (setting [1]).
For `CC(C)(C)C(=O)OCOP(=O)(OCOC(=O)C(C)(C)C)C(F)(F)c1ccc2sc(C(=O)N[C@H]3CCC[C@H]4CCC[C@@H](C(=O)N5CC(n6ccnc6)C5)N4C3=O)cc2c1` [Compound 173, ((((2-(((4S,7S,10aS)-4-(3-(1H-imidazol-1-yl)azetidine-1-carbonyl)-6-oxodecahydropyrido [1,2-a]azepin-7-yl)carbamoyl)benzo[b]thiophen-5-yl)difluoromethyl)phosphoryl)bis(oxy)) bis(methylene) bis(2,2-dimethylpropanoate)] the same measures were 100 to 1000 nM and more than 3000 nM.
As for `CCOC(=O)[C@H](C)NP(=O)(Cc1ccc2ccc(C(=O)N[C@H]3CCCC[C@H]4CC[C@@H](C(=O)N5CC(c6ccccc6)CC56CC6)N4C3=O)cc2c1)Oc1ccccc1` (stereo partly drawn) [Compound 396, ethyl (((7-(((3S,6S,10aS)-5-oxo-3-(6-phenyl-4-azaspiro[2.4]heptane-4-carbonyl)decahydropyrrolo[1,2-a]azocin-6-yl)carbamoyl)naphthalen-2-yl)methyl)(phenoxy)phosphoryl)-L-alaninate], the IC50 at pY705-STAT3 in PBMC (Table 115, read-out: STAT3) is more than 3000 nM; against pY641-STAT6 in PBMC (STAT6, PBMC, Table 115), 1000 to 3000 nM.
Consider `CC(C)(C)C(=O)SCCOP(=O)(OCCSC(=O)C(C)(C)C)C(F)(F)c1ccc2sc(C(=O)N[C@H]3C[C@@H](O)CC[C@H]4CC[C@@H](C(=O)N5C[C@@H](C#N)[C@H](c6ccccc6)C5)N4C3=O)cc2c1` (single isomer, unassigned) [Compound 129, S,S′-(((((2-(((3S,6S,8S,10aR)-3-((3S,4R or 3R,4S)-3-cyano-4-phenylpyrrolidine-1-carbonyl)-8-hydroxy-5-oxodecahydro-pyrrolo[1,2-a]azocin-6-yl)carbamoyl)benzo [b]thiophen-5-yl)difluoromethyl)phosphoryl)bis(oxy))bis(ethane-2,1-diyl)) bis(2,2-dimethylpropane-thioate], for which the IC50 on pY705-STAT3 in PBMC (Table 1114, read-out: pSTAT3) is more than 3000 nM; at pY641-STAT6 in PBMC (setting [1]), 100 to 1000 nM.
For `CC(C)(CO)C(=O)SCCOP(=O)(Cc1ccc2sc(C(=O)NC3CCCCC4CCC(C(=O)N5CC(C#N)C(c6ccccc6)C5)N4C3=O)cc2c1)OCCSC(=O)C(C)(C)CO` (single isomer, unassigned) [Compound 199, S,S′-(((((2-(((3S,6S,10aS)-3-((3S,4R or 3R,4S)-3-cyano-4-phenylpyrrolidine-1-carbonyl)-5-oxodecahydropyrrolo[1,2-a]azocin-6-yl)carbamoyl)benzo[b]thiophen-5-yl)methyl)phosphoryl)bis(oxy))bis(ethane-2,1-diyl))bis(3-hydroxy-2,2-dimethylpropanethioate)trifluoroacetate] the same measures were more than 3000 nM and more than 3000 nM.
In the case of `C[C@H](NP(=O)(Cc1ccc2ccc(C(=O)N[C@H]3CCCC[C@H]4CC[C@@H](C(=O)N5CC(c6ccccc6)CC56CC6)N4C3=O)cc2c1)Oc1ccccc1)C(=O)OCc1ccccc1` (stereo partly drawn) [Compound 397, benzyl (((7-(((3S,6S,10aS)-5-oxo-3-(6-phenyl-4-azaspiro[2.4]heptane-4-carbonyl)decahydropyrrolo[1,2-a]azocin-6-yl)carbamoyl)naphthalen-2-yl)methyl)(phenoxy)phosphoryl)-L-alaninate], the IC50 at pY705-STAT3 in PBMC (Table 115, read-out: STAT3) is more than 3000 nM; against pY641-STAT6 in PBMC (STAT6, PBMC, Table 115) it was more than 3000 nM.
As to `CCCOC(=O)[C@H](C)NP(=O)(Cc1ccc2sc(C(=O)N[C@H]3CCCC[C@H]4CC[C@@H](C(=O)NCc5cnc6[nH]cnc6c5)N4C3=O)cc2c1)Oc1ccccc1` (stereo partly drawn) [Compound 280, propyl (((2-(((3S,6S,10aS)-3-(((3H-imidazo[4,5-b]pyridin-6-yl)methyl)carbamoyl)-5-oxodecahydropyrrolo [1,2-a]azocin-6-yl)carbamoyl)benzo [b]thiophen-5-yl)methyl)(phenoxy)phosphoryl)-L-alaninate], the IC50 on pY705-STAT3 in PBMC (Table 115, read-out: STAT3) was less than 100 nM; against pY641-STAT6 in PBMC (STAT6, PBMC, Table 115) it was more than 3000 nM.
